Values joined by “and” are separate entries in the source; they are usually repeats but may differ in a detail not shown here. Equal values may be shown once. Inconclusive results and toxic doses are left out.
Tested on: P388 leukemia ip, CD2F1 mice, survival T/C
Test: NCI In Vivo Anticancer Drug Screen. Data for tumor model P388 Leukemia (intraperitoneal) in CD2F1 (CDF1) mice
Details: endpoint: median survival time, higher = longer survival
Method in brief: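 Mice carrying the transplanted tumor received test compound or vehicle. Survival was recorded in each group, and the value is the treated-group measurement divided by that of the vehicle-treated control group.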

[1] = dose: 25.0 mg/kg/injection, schedule: Q01DX005 (ip), vehicle: saline with Tween-80
[2] = dose: 50.0 mg/kg/injection, schedule: Q01DX005 (ip), vehicle: saline with Tween-80
[3] = dose: 100.0 mg/kg/injection, schedule: Q01DX005 (ip), vehicle: saline with Tween-80

C[N+](C)(C)NC1OC(C(O)S(=O)(=O)O)C(OCc2ccccc2)C(OCc2ccccc2)C1O (stereo not drawn) was tested, and the T/C (dose: 50.0 mg/kg/injection, schedule: Q01DX009 (ip), vehicle: saline) was 104 % of control and the T/C (dose: 100.0 mg/kg/injection, schedule: Q01DX009 (ip), vehicle: saline) was 106 % of control.

For O=C1NC(=O)c2ncccc21, the T/C (dose: 100.0 mg/kg/injection, schedule: Q04DX003 (ip), vehicle: saline with Tween-80) was 100 % of control, the T/C (dose: 200.0 mg/kg/injection, schedule: Q04DX003 (ip), vehicle: saline with Tween-80) was 100 % of control and the T/C (dose: 400.0 mg/kg/injection, schedule: Q04DX003 (ip), vehicle: saline with Tween-80) was 100 % of control.

For O=C1c2sccc2C2NC12 (stereo not drawn), the T/C (dose: 50.0 mg/kg/injection, schedule: Q01DX005 (ip), vehicle: saline) was 91 % of control and the T/C (dose: 100.0 mg/kg/injection, schedule: Q01DX005 (ip), vehicle: saline) was 100 % of control.

For O=C=C=O, the T/C (dose: 1:2.0 dilution, schedule: Q01DX001 (ip), vehicle: none) was 102 % of control, the T/C (dose: 1:4.0 dilution, schedule: Q01DX001 (ip), vehicle: none) was 104 % of control and the T/C (dose: 1:8.0 dilution, schedule: Q01DX001 (ip), vehicle: none) was 99 % of control.

With C[N+]1(Cc2ccccc2)CCCC(O)C1 (stereo not drawn) the T/C (dose: 7.5 mg/kg/injection, schedule: Q01DX005 (ip), vehicle: saline with Tween-80) was 101 % of control, the T/C (dose: 15.0 mg/kg/injection, schedule: Q01DX005 (ip), vehicle: saline with Tween-80) was 93 % of control and the T/C (dose: 30.0 mg/kg/injection, schedule: Q01DX005 (ip), vehicle: saline with Tween-80) was 99 % of control.

CC[As](=O)(O)CC(C)C was tested, and the T/C (dose: 25.0 mg/kg/injection, schedule: Q04DX002 (ip), vehicle: saline) was 100 % of control and the T/C (dose: 50.0 mg/kg/injection, schedule: Q04DX002 (ip), vehicle: saline) was 100 % of control.

In the case of Nc1nc(Cc2ccccc2)c(-c2ccccc2)c(-c2nc(N)nc(Cc3ccccc3)c2-c2ccccc2)n1, the T/C (dose: 60.0 mg/kg/injection, schedule: Q01DX005 (ip), vehicle: saline with Tween-80) is reported as 100 % of control, the T/C (dose: 120.0 mg/kg/injection, schedule: Q01DX005 (ip), vehicle: saline with Tween-80) is reported as 105 % of control and the T/C (dose: 240.0 mg/kg/injection, schedule: Q01DX005 (ip), vehicle: saline with Tween-80) is reported as 99 % of control.

In the case of COc1cc(C2c3cc4c(cc3OC(C)(N3CCCC3)C2C)OCO4)cc(OC)c1OC (stereo not drawn), the T/C (dose: 60.0 mg/kg/injection, schedule: Q01DX005 (ip), vehicle: Klucel (hydroxypropylcellulose) (HPC)) is reported as 100 % of control, the T/C (dose: 120.0 mg/kg/injection, schedule: Q01DX005 (ip), vehicle: Klucel (hydroxypropylcellulose) (HPC)) is reported as 102 % of control and the T/C (dose: 240.0 mg/kg/injection, schedule: Q01DX005 (ip), vehicle: Klucel (hydroxypropylcellulose) (HPC)) is reported as 105 % of control.

For Cc1cc(Br)c2c(c1)C(C(F)(F)F)(C(F)(F)F)OC(C)(C)N2, the T/C (dose: 50.0 mg/kg/injection, schedule: Q01DX009 (ip), vehicle: Klucel (hydroxypropylcellulose) (HPC)) was 94 % of control, the T/C (dose: 100.0 mg/kg/injection, schedule: Q01DX009 (ip), vehicle: Klucel (hydroxypropylcellulose) (HPC)) was 100 % of control and the T/C (dose: 200.0 mg/kg/injection, schedule: Q01DX009 (ip), vehicle: Klucel (hydroxypropylcellulose) (HPC)) was 101 % of control.

For c1ccc2c(c1)oc1cc3c(cc12)n1nnnc1c1cccn31, the T/C [1] was 92 % of control, the T/C [2] was 97 % of control and the T/C [3] was 100 % of control. The T/C (dose: 200.0 mg/kg/injection, schedule: Q01DX005 (ip), vehicle: saline with Tween-80) was 100 % of control.

For O=C(NN(Cn1c(=S)sc2ccccc21)Cn1c(=S)sc2ccccc21)c1ccncc1, the T/C (dose: 3.12 mg/kg/injection, schedule: Q01DX009 (ip), vehicle: Klucel (hydroxypropylcellulose) (HPC)) was 105 % of control and 98 % of control, the T/C (dose: 6.25 mg/kg/injection, schedule: Q01DX009 (ip), vehicle: Klucel (hydroxypropylcellulose) (HPC)) was 93 % of control and 94 % of control and the T/C (dose: 12.5 mg/kg/injection, schedule: Q01DX009 (ip), vehicle: Klucel (hydroxypropylcellulose) (HPC)) was 88 % of control and 92 % of control.

With Cc1ccc(C2(Br)C(=O)c3ccccc3C2=O)cc1 the T/C (dose: 100.0 mg/kg/injection, schedule: Q04DX002 (ip), vehicle: saline) was 103 % of control, the T/C (dose: 200.0 mg/kg/injection, schedule: Q04DX002 (ip), vehicle: saline) was 102 % of control and the T/C (dose: 400.0 mg/kg/injection, schedule: Q04DX002 (ip), vehicle: saline) was 101 % of control.

For O=C(NCCCl)OCC1=C(COC(=O)NCCCl)C(=O)c2ccccc2C1=O, the T/C (dose: 12.5 mg/kg/injection, schedule: Q01DX005 (ip), vehicle: saline with Tween-80) was 100 % of control and 102 % of control, the T/C [1] was 101 % of control and 106 % of control and the T/C [2] was 110 % of control. For the same molecule, the T/C [3] was 113 % of control.

Source: PubChem BioAssay AID330 (DTP/NCI, 2004)
